Results on three molecules are retold here after patent publication US7211436B1, “Compositions and methods for regulating abscisic acid-induced closure of plant stomata” (The Penn State Research Foundation, priority 1999, dated 2007).

In test [1] the test system is guard cells (stomatal aperture). Description: ABA-mediated prevention of stomatal opening in abaxial epidermal peels of transformed V. faba leaves. As to conditions: ABA 50 μM, illuminated. The test is classed as cell-based, Vicia faba. As to the method:
(§1) Analysis of AAPK mutants for stomatal aperture changes and anion channel activation. V. faba leaves were biolistically transformed with the pGFP, pAAPK-GFP, or pAAPK(K43A)-GFP constructs. The V. faba leaves were bombarded with gold particles (Bio-Rad) coated with one of the DNA constructs. Bombardment was via a particle delivery system 1000/He (Bio-Rad) as described. (J. Marc et al., 1998, Plant Cell 10:1927).
(§2) Abaxial epidermal peels were isolated and the transformed guard cells were assayed for ABA-mediated prevention of stomatal opening and for stomatal closure stimulated by ABA, CO2 or darkness. Conditions were as in Assman, S., and Baskin, T. (1998) J. Exp. Bot. 49:163 except that the incubation solution was 10 mM MES, 30 mM KCl, pH=6.1, with or without 50 μM {±} cis,trans-ABA. For closure experiments, the transformed leaves were illuminated with 0.20 mmol m^−2 s^−1 white light for 2.5 h to open the stomata. The abaxial epidermal peels were placed in incubation solution and treated with either darkness, 25 μM {±} cis,trans-ABA or with 700 ppm CO2 for 1 h.

Another test concerns AAPK. Description: Kinase activity of immunoprecipitated GFP fusion proteins with histone III-S as substrate. The test is classed as biochemical, Vicia faba. The conditions noted are these: cells transfected with pAAPK-GFP; protoplasts treated with ABA prior to isolation of the proteins. The source says: Analysis of AAPK mutants and hybrid expression DNA constructs for ABA-activated protein kinase activity. 1.5×10^7 V. faba guard cell protoplasts were transfected with either the vector, pGFP, or the constructs, pAAPK-GFP or pAAPK(K43A)-GFP by polyethylene glycol (PEG)-mediated DNA transfer. After uptake and expression, protoplasts were lysed and recombinant protein was immunoprecipitated with anti-GFP peptide antibodies (Clontech) and protein A-Sepharose CL-4B (Amersham Pharmacia Biotech). Immunoprecipitated proteins were assayed for kinase activity using histone III-S (Sigma) as substrate.

The next test relates to slow anion channels. Description: Whole-cell patch-clamp of guard cell protoplasts, anion channel activation. In kind it is cell-based, Vicia faba. The protocol:
Anion channel activation was measured in guard cell protoplasts. Whole-cell patch-clamp experiments were performed according to established methods. Pipette solution contained 100 mM KCl, 50 mM tetramethylammonium, 2 mM MgCl, 6.7 mM EGTA-(Tris)2, 3.35 mM CaCl2, 10 mM HEPES, pH=7.1 (Tris) and 5 mM Mg-ATP. Bath solution contained 40 mM CaCl2, 2 mM MgCl and 10 mM MES-Tris pH5.6. Osmolalities were adjusted with sorbitol to 500 mosmol/kg (in the pipette) or 470 mosmol/kg (in the bath). Protein kinase inhibitor K-252a (Calbiochem) was prepared as a stock solution at 2 mM in dimethyl sulfoxide (DMSO).
(The patch-clamp technique gives a direct electrical read-out from membranes.)

For test [2], the system named is guard cells (stomatal aperture). Description: Stomatal closure in abaxial epidermal peels of transformed V. faba leaves. In kind it is cell-based, Vicia faba. The conditions noted are these: for change in half aperture of stomata, closure: 1 h, illuminated. The protocol:
as §1, §2

Another test deals with native AAPK. Description: Native AAPK activity. In kind it is biochemical, Vicia faba. As to the method:
Isolation and Identification of ABA-Activated Protein Kinase (AAPK). Guard cell protoplasts (2×10^6; 99.6% pure) were prepared from Vicia faba. Protoplasts were treated with either darkness, ABA or elevated CO2 concentrations prior to protein isolation. Protoplast proteins were extracted and subjected to 2-dimensional gel electrophoresis. Separation was via 12% SDS-polyacrylamide gel electrophoresis (SDS-PAGE). Kinase autophosphorylation activity of subsequently renatured proteins was detected by established methods.

The mark [3] stands for this setting: AAPK(K43A)-GFP transformed guard cells, ABA 25 μM or CO2 700 ppm.
Setting [4] is: AAPK(K43A)-GFP, untransformed guard cells, ABA 25 μM or CO2 700 ppm.

With `CC1=CC(=O)CC(C)(C)C1(O)/C=C/C(C)=C\C(=O)O` (racemic) [ABA, abscisic acid], the “change in half aperture of stomata, opening” value was 0.42 ± 0.17 (46) micrometers in test [1] (AAPK(K43A)-GFP transformed guard cells); 0.44 ± 0.15 (46) micrometers in test [1] (AAPK(K43A)-GFP, untransformed guard cells); 0.41 ± 0.28 (36) micrometers in test [1] (AAPK-GFP column, untransformed guard cells); 0.43 ± 0.22 (36) micrometers in test [1] (AAPK-GFP transformed guard cells); 0.45 ± 0.27 (36) micrometers in test [1] (GFP column, untransformed guard cells); 0.42 ± 0.22 (36) micrometers in test [1] (GFP transformed guard cells). The “histone phosphorylation activity of immunoprecipitate after ABA treatment of protoplasts” value with AAPK is “significantly enhanced”. Further, in the test with slow anion channels (V. faba guard cells), the “effect on slow anion channels” value is given as “activated”. Also, the “effect on anion current magnitude” value with slow anion channels (whole-cell configuration) was “increased”. Also, the “change in half aperture of stomata, closure” value is recorded as −0.36 ± 0.26 (56) micrometers in test [2] (setting [3]); −2.55 ± 0.21 (56) micrometers in test [2] (setting [4]); −2.58 ± 0.24 (36) micrometers in test [2] (AAPK-GFP column, untransformed guard cells, ABA 25 μM); −2.59 ± 0.30 (36) micrometers in test [2] (AAPK-GFP transformed guard cells, ABA 25 μM); −2.54 ± 0.35 (36) micrometers in test [2] (GFP column, untransformed guard cells, ABA 25 μM); −2.52 ± 0.29 (36) micrometers in test [2] (GFP transformed guard cells, ABA 25 μM).

With `O=C=O` [CO2], the figures for the “change in half aperture of stomata, closure” value in test [2] (setting [3]) and in test [2] (setting [4]) were −2.23 ± 0.44 (36) micrometers and −2.31 ± 0.46 (36) micrometers, respectively.

On to `COC(=O)[C@@]1(O)C[C@H]2O[C@]1(C)n1c3ccccc3c3c4c(c5c6ccccc6n2c5c31)C(=O)NC4` [K-252a], for which the “effect on native AAPK activity” value in the test with native AAPK is “inhibits”. Also, in the test with slow anion channels (untransformed cells), the “effect on ABA regulation of anion channels” value is on record as “inhibits”. In addition, the “effect on ABA-induced stomatal closure” value in test [2] (kinase inhibitor, untransformed cells) is reported as “inhibits”.
